Measured values: patent publication US9566312B2, “Cyclic peptides and use as medicines” (priority 2012, dated 2017)
pIC50, pKi: −log10 of the molar value. Like-named read-outs stand apart in the source and are kept apart here. Starred links: 1 amine or outer side, 2 acyl side, 3 side chain; linkers in the order of their positions; H or OH if unused. Non-standard residues stand in square brackets, D forms with d. Residues, ends and D or L forms follow the SMILES beside them. X58 = C[C@H](COCCN1CCN(C2CCC2)CC1)[C@@H](C(=O)[*:2])N(C)[*:1]; X12 = C[C@@H](CN1CCN(C2CCC2)CC1)[C@@H](C(=O)[*:2])N(C)[*:1]; X22 = C[C@H](CN1CCN(C2CCC2)CC1)[C@@H](C(=O)[*:2])N(C)[*:1]; X6 = C[C@@H](CN1CCN(C2COC2)CC1)[C@@H](C(=O)[*:2])N(C)[*:1]; X63 = C[C@H](CN1CCN(C2COC2)CC1)[C@@H](C(=O)[*:2])N(C)[*:1]; X19 = COCCN1CCN(C[C@H](C)[C@@H](C(=O)[*:2])N(C)[*:1])CC1; X8 = COCCN1CCN(C[C@@H](C)[C@@H](C(=O)[*:2])N(C)[*:1])CC1; X21 = CCN1CCN(C[C@@H](C)[C@@H](C(=O)[*:2])N(C)[*:1])CC1; X23 = COC1CN(C[C@@H](C)[C@@H](C(=O)[*:2])N(C)[*:1])C1; X20 = C[C@H](CCCN1CCOCC1)[C@@H](C(=O)[*:2])N(C)[*:1]; MeBmt = C/C=C/C[C@@H](C)[C@@H](O)[C@H](NC)C(=O)O; X15 = COCC(COC)[C@@H](C(=O)[*:2])N(C)[*:1]; NMeL = CN[C@@H](CC(C)C)C(=O)O; NMeV = CN[C@H](C(=O)O)C(C)C; dNMeA = CN[C@H](C)C(=O)O; Abu = CC[C@H](N)C(=O)O

Key:
[1] = system: genotype 1b subgenomic HCV replicon in Huh7.5 cells; format: cell-based, hepatitis C virus; conditions: read-out: RPLN-1b IC50
Procedure, shortened: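 Huh7.5 cells carrying genotype 1b subgenomic HCV replicon with renilla luciferase-neomycin reporter, in phenol red-free DMEM without G418. Luciferase measured after 72 h compound exposure relative to DMSO-treated cells; cytotoxicity (CC50) by Cell Titer-Glo.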

[2] = system: peripheral blood mononuclear cells (PBMC); assay: Anti-proliferative or immunosuppressive activity, BrdU incorporation in PHA-stimulated PBMC; format: cell-based; conditions: PHA 3 μg/ml, 60 hour compound treatment; read-out: EMV PBMC IC50
Procedure, shortened: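 Fresh PBMCs from two donors, 30,000 per well in X-VIVO 15 medium, stimulated with 3 μg/ml PHA to drive T-cell proliferation. Proliferation measured as BrdU incorporation into DNA by BrdU ELISA.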

cyclophilin B (CypB) = cyclophilin B (CypB) (Homo sapiens (Human), UniProt P23284); assay: Inhibitor binding to cyclophilin proteins by SPR, CypB; parameters: unit not given here; conditions: 1:1 binding model
Procedure, shortened: (§1)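 SPR, single-cycle kinetics. Avi-tagged, mono-biotinylated protein on Biotin CAPture chip; running buffer 10 mM HEPES pH 7.4, 150 mM NaCl, 0.05% P20, 3% DMSO. 1 min contacts at 50 μL/min, 10 min dissociation. kon/koff/KD from 1:1 fit.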

cyclophilin A (CypA) = cyclophilin A (CypA) (Homo sapiens (Human), UniProt P62937); assay: Inhibitor binding to cyclophilin proteins by SPR, CypA; parameters: unit not given here; conditions: 1:1 binding model;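 further: Single-cycle kinetics on a Biacore T200, compound injected at several concentrations for 1 min each at 50 µL/min, then 10 min dissociation, in HEPES pH 7.4 buffer with 3% DMSO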
[3] = target: organic anion transporting polypeptide 1B1 (OATP1B1) (Homo sapiens (Human), UniProt Q9Y6L6); assay: OATP assay in CHO-OATP1B1 cells;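 further: inhibition of probe substrate uptake into the cells, ten minutes exposure, accumulated substrate read by fluorescence once cells were lysed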
Protocol: In order to determine whether the compounds of the present invention interact with hepatic transporters, experiments were carried out that compared the concentration-dependent inhibition toward the organic anion transporting polypeptide 1B1 (OATP1B1) and the multidrug resistance associated protein 2 (MRP2).
The cells were cultured in DMEM/F12 +10% FBS+2 mM Ala-Gln+1% Pen-Strep for a period of two days, and the media was changed one day post-seeding. Prior to the assay, media was aspirated and were washed −3× with HBSS+10 mM HEPES and the solution was equilibrated for 15 min in HBSS+10 mM HEPES. Solutions containing the inhibitor were prepared in HBSS+10 mM HEPES (up to 1% DMSO). […] After 10 min, the substrate or substrate/inhibitor solution was aspirated and the cells were washed 3× with HBSS+10 mM HEPES. The amount of the transported probe substrate was determined by fluorescent photometry after cell lysis, and the IC50 was derived from the concentration-response curve.

CypF = CypF (Homo sapiens (Human), UniProt P30405); assay: Inhibitor binding to cyclophilin proteins by SPR, CypF; conditions: 1:1 binding model
Procedure, shortened: as §1

CYP3A4 = CYP3A4 (Homo sapiens (Human), UniProt P08684); assay: Time-dependent inhibition of CYP3A4; conditions: for NIM TDI kinact/Ki: probe substrate midazolam;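 on all read-outs here: Two-step in vitro assay, kobs derived from residual CYP3A4 activity versus preincubation time per concentration, then kinact and KI by nonlinear fit of kobs against concentration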
Protocol: Method 5: Measuring Time-Dependent Inhibition of CYP3A4
The CYP3A4 time dependent inhibition potential of various inhibitors was determined by a two step in vitro assay. […] The inactivation rate constant (kobs) was obtained by plotting the activity remaining over pre-incubation time for each concentration of compound. The maximal inactivation rate (kinact) and the inactivation potency (KI) were calculated by non linear regression analysis of the inactivation rate constant (kobs) versus compound concentrations [I] curve according to the equation kobs=[kinact·[I]]/[KI+[I]]

[4] = genotype 1b replicon, 72 h incubation

Sequence of CypF (P30405 30-207): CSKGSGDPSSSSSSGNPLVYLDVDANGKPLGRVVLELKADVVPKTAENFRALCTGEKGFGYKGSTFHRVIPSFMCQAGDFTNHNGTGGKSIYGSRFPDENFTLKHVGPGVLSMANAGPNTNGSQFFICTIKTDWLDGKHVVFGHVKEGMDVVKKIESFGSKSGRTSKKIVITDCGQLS
Sequence of organic anion transporting polypeptide 1B1 (OATP1B1) (Q9Y6L6 whole entry): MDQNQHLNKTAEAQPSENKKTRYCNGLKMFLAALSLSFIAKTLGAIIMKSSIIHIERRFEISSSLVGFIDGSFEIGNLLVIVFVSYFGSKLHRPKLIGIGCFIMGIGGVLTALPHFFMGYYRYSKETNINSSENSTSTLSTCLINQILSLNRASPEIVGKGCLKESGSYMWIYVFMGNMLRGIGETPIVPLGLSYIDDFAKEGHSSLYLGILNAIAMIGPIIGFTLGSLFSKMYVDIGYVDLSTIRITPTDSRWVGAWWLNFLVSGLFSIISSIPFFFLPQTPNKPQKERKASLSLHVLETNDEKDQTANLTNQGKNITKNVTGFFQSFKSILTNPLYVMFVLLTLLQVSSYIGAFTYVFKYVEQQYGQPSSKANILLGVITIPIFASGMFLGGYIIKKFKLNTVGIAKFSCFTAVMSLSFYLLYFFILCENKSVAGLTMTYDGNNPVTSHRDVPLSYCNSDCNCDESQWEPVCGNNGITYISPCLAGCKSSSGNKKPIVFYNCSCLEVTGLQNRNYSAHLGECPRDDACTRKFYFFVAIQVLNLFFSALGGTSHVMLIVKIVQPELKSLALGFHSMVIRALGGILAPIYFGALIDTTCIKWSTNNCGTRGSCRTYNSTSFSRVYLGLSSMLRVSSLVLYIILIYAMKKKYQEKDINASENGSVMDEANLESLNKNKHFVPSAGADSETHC
Sequence of CYP3A4 (P08684 whole entry): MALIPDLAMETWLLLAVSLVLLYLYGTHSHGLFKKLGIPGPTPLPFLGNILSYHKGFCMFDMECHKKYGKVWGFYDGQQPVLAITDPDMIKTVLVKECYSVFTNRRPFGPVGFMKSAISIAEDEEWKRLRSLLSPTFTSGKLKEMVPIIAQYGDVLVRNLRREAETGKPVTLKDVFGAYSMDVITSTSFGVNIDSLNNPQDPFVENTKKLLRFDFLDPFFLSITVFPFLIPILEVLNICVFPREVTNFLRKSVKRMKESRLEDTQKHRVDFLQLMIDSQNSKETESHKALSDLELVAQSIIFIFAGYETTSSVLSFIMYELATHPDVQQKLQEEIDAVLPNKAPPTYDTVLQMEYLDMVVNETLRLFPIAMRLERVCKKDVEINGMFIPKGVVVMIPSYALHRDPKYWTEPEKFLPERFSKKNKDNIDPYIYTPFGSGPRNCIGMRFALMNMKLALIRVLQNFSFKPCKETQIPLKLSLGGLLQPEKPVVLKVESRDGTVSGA
Sequence of cyclophilin B (CypB) (P23284 34-216): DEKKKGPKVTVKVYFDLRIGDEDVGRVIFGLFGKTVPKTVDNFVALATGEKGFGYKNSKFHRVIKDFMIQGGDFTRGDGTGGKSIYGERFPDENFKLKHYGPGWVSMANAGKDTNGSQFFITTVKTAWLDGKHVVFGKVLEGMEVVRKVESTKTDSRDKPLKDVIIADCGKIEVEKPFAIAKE
Sequence of cyclophilin A (CypA) (P62937 whole entry): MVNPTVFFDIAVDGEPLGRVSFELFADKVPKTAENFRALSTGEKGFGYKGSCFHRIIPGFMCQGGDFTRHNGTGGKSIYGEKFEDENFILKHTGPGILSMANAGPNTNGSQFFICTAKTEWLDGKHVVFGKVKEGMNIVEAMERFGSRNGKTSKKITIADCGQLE

Compound	pIC50 [1, 4]	pIC50 [2]	CypB Kd (cyclophilin B (CypB))	CypA Kd (cyclophilin A (CypA))	pIC50 [3]	CypF Kd (CypF)	pKi (CYP3A4)	pIC50 [1]	KI (inactivation) (CYP3A4)	NIM TDI kinact/Ki (CYP3A4)
C/C=C/C[C@@H](C)[C@@H](O)[C@H]1C(=O)N[C@@H](CC)C(=O)N(C)[C@H](C)C(=O)N(C)[C@@H]([C@@H](C)CN2CCN(C3CCC3)CC2)C(=O)N[C@@H](C(C)C)C(=O)N(C)[C@@H](CC(C)C)C(=O)N[C@@H](C)C(=O)N[C@H](C)C(=O)N(C)[C@@H](CC(C)C)C(=O)N(C)[C@@H](CC(C)C)C(=O)N(C)[C@@H](C(C)C)C(=O)N1C [Compound 2.17.3, 3-[D-Ala]-4[(2S,3S)-2-Amino-4-(4-cyclobutyl-piperazin-1-yl)-3-methyl-butanoyl]-cyclosporin] (cyclo(A[dA][NMeL][NMeL][NMeV][MeBmt][Abu][dNMeA][X12]V[NMeL]))	7.51	5.17	0.4	0.5	5.40	0.3 nM	< 4.30	–	–	–
C/C=C/C[C@@H](C)[C@@H](O)[C@H]1C(=O)N[C@@H](CC)C(=O)N(C)[C@H](C)C(=O)N(C)[C@@H]([C@@H](C)CN2CCN(C3COC3)CC2)C(=O)N[C@@H](C(C)C)C(=O)N(C)[C@@H](CC(C)C)C(=O)N[C@@H](C)C(=O)N[C@H](C)C(=O)N(C)[C@@H](CC(C)C)C(=O)N(C)[C@@H](CC(C)C)C(=O)N(C)[C@@H](C(C)C)C(=O)N1C [Compound 2.17.5, 3-[D-Ala]-4[(2S,3S)-2-Amino-3-methyl-4-(4-oxetan-3-yl-piperazin-1-yl)-butanoyl]-cyclosporin] (cyclo(A[dA][NMeL][NMeL][NMeV][MeBmt][Abu][dNMeA][X6]V[NMeL]))	7.48	4.45	0.5	0.7	5.74	0.4 nM	< 4.30	–	–	–
C/C=C/C[C@@H](C)[C@@H](O)[C@H]1C(=O)N[C@@H](CC)C(=O)N(C)[C@H](C)C(=O)N(C)[C@@H]([C@H](C)CN2CC(OC)C2)C(=O)N[C@@H](C(C)C)C(=O)N(C)[C@@H](CC(C)C)C(=O)N[C@@H](C)C(=O)N[C@H](C)C(=O)N(C)[C@@H](CC(C)C)C(=O)N(C)[C@@H](CC(C)C)C(=O)N(C)[C@@H](C(C)C)C(=O)N1C [Compound 2.5.17, 3-[D-Ala]-4-[(2S,3R)-4-(3-methoxyazetidin-1-yl)-3-methyl-2-(methylamino)butanoyl]-cyclosporin] (cyclo(A[dA][NMeL][NMeL][NMeV][MeBmt][Abu][dNMeA][X23]V[NMeL]))	7.36	4.75	0.9	1.9	5.38	1 nM	< 4.30	–	–	–
C/C=C/C[C@@H](C)[C@@H](O)[C@H]1C(=O)N[C@@H](CC)C(=O)N(C)[C@H](C)C(=O)N(C)[C@@H]([C@H](C)CN2CCN(CCOC)CC2)C(=O)N[C@@H](C(C)C)C(=O)N(C)[C@@H](CC(C)C)C(=O)N[C@@H](C)C(=O)N[C@H](C)C(=O)N(C)[C@@H](CC(C)C)C(=O)N(C)[C@@H](CC(C)C)C(=O)N(C)[C@@H](C(C)C)C(=O)N1C [Compound 2.5.10, 3-[D-Ala]-4[(2S,3R)-2-Amino-4-[4-(2-methoxy-ethyl)-piperazin-1-yl]-3-methyl-butanoyl]-cyclosporin] (cyclo([MeBmt][Abu][dNMeA][X8]V[NMeL]A[dA][NMeL][NMeL][NMeV]))	–	4.77	1.2	1.2	5.21	0.9 nM	–	7.41	> 50000 nM	–
C/C=C/C[C@@H](C)[C@@H](O)[C@H]1C(=O)N[C@@H](CC)C(=O)N(C)[C@H](C)C(=O)N(C)[C@@H]([C@@H](C)CN2CCN(CCOC)CC2)C(=O)N[C@@H](C(C)C)C(=O)N(C)[C@@H](CC(C)C)C(=O)N[C@@H](C)C(=O)N[C@H](C)C(=O)N(C)[C@@H](CC(C)C)C(=O)N(C)[C@@H](CC(C)C)C(=O)N(C)[C@@H](C(C)C)C(=O)N1C [Compound 2.17.4, 3-[D-Ala]-4[(2S,3S)-2-Amino-4-[4-(2-methoxy-ethyl)-piperazin-1-yl]-3-methyl-butanoyl]-cyclosporin] (cyclo(A[dA][NMeL][NMeL][NMeV][MeBmt][Abu][dNMeA][X19]V[NMeL]))	7.51	5.57	0.5	0.6	5.49	0.3 nM	< 4.30	–	–	–
C/C=C/C[C@@H](C)[C@@H](O)[C@H]1C(=O)N[C@@H](CC)C(=O)N(C)[C@H](C)C(=O)N(C)[C@@H]([C@H](C)CN2CCN(C3CCC3)CC2)C(=O)N[C@@H](C(C)C)C(=O)N(C)[C@@H](CC(C)C)C(=O)N[C@@H](C)C(=O)N[C@H](C)C(=O)N(C)[C@@H](CC(C)C)C(=O)N(C)[C@@H](CC(C)C)C(=O)N(C)[C@@H](C(C)C)C(=O)N1C [Compound 2.5.14, 3-[D-Ala]-4[(2S,3R)-2-Amino-4-(4-cyclobutyl-piperazin-1-yl)-butanoyl]-cyclosporin] (cyclo(A[dA][NMeL][NMeL][NMeV][MeBmt][Abu][dNMeA][X22]V[NMeL]))	7.49	5.09	0.7	1.0	5.28	0.5 nM	< 4.30	–	–	–
C/C=C/C[C@@H](C)[C@@H](O)[C@H]1C(=O)N[C@@H](CC)C(=O)N(C)[C@H](C)C(=O)N(C)[C@@H]([C@H](C)CN2CCN(CC)CC2)C(=O)N[C@@H](C(C)C)C(=O)N(C)[C@@H](CC(C)C)C(=O)N[C@@H](C)C(=O)N[C@H](C)C(=O)N(C)[C@@H](CC(C)C)C(=O)N(C)[C@@H](CC(C)C)C(=O)N(C)[C@@H](C(C)C)C(=O)N1C [Compound 2.5.13, 3-[D-Ala]-4[(2S,3R)-2-Amino-4-(4-ethyl-piperazin-1-yl)-butanoyl]-cyclosporin] (cyclo(A[dA][NMeL][NMeL][NMeV][MeBmt][Abu][dNMeA][X21]V[NMeL]))	7.30	5.28	0.8	0.9	5.34	0.5 nM	< 4.30	–	–	–
C/C=C/C[C@@H](C)[C@@H](O)[C@H]1C(=O)N[C@@H](CC)C(=O)N(C)[C@H](C)C(=O)N(C)[C@@H](C(COC)COC)C(=O)N[C@@H](C(C)C)C(=O)N(C)[C@@H](CC(C)C)C(=O)N[C@@H](C)C(=O)N[C@H](C)C(=O)N(C)[C@@H](CC(C)C)C(=O)N(C)[C@@H](CC(C)C)C(=O)N(C)[C@@H](C(C)C)C(=O)N1C [Compound 2.11, 3-[D-Ala]-4-[(S)-4-methoxy-3-(methoxymethyl)-2-(methylamino)butanoyl]-cyclosporin] (cyclo(A[dA][NMeL][NMeL][NMeV][MeBmt][Abu][dNMeA][X15]V[NMeL]))	7.24	5.10	1.3	1.9	5.59	1.2 nM	< 4.30	–	–	–
C/C=C/C[C@@H](C)[C@@H](O)[C@H]1C(=O)N[C@@H](CC)C(=O)N(C)[C@H](C)C(=O)N(C)[C@@H]([C@H](C)CN2CCN(C3COC3)CC2)C(=O)N[C@@H](C(C)C)C(=O)N(C)[C@@H](CC(C)C)C(=O)N[C@@H](C)C(=O)N[C@H](C)C(=O)N(C)[C@@H](CC(C)C)C(=O)N(C)[C@@H](CC(C)C)C(=O)N(C)[C@@H](C(C)C)C(=O)N1C [Compound 2.5.11] (cyclo(A[dA][NMeL][NMeL][NMeV][MeBmt][Abu][dNMeA][X63]V[NMeL]))	7.30	4.86	1.2	1.6	5.93	1 nM	< 4.30	–	–	–
C/C=C/C[C@@H](C)[C@@H](O)[C@H]1C(=O)N[C@@H](CC)C(=O)N(C)[C@H](C)C(=O)N(C)[C@@H]([C@H](C)CCCN2CCOCC2)C(=O)N[C@@H](C(C)C)C(=O)N(C)[C@@H](CC(C)C)C(=O)N[C@@H](C)C(=O)N[C@H](C)C(=O)N(C)[C@@H](CC(C)C)C(=O)N(C)[C@@H](CC(C)C)C(=O)N(C)[C@@H](C(C)C)C(=O)N1C [Compound 2.19.1, 3-[D-Ala]-4-[(2S,3R)-3-methyl-2-(methylamino)-6-morpholinohexanoyl]-cyclosporin] (cyclo([MeBmt][Abu][dNMeA][X20]V[NMeL]A[dA][NMeL][NMeL][NMeV]))	–	4.78	0.5	0.9	5.16	0.5 nM	–	7.42	–	17 M⁻¹ s⁻¹
C/C=C/C[C@@H](C)[C@@H](O)[C@H]1C(=O)N[C@@H](CC)C(=O)N(C)[C@H](C)C(=O)N(C)[C@@H]([C@H](C)COCCN2CCN(C3CCC3)CC2)C(=O)N[C@@H](C(C)C)C(=O)N(C)[C@@H](CC(C)C)C(=O)N[C@@H](C)C(=O)N[C@H](C)C(=O)N(C)[C@@H](CC(C)C)C(=O)N(C)[C@@H](CC(C)C)C(=O)N(C)[C@@H](C(C)C)C(=O)N1C [Compound 2.8.8, 3-[D-Ala]-4-[(2S,3S)-4-(2-(4-cyclobutylpiperazin-1-yl)ethoxy)-3-methyl-2-(methylamino)butanoyl]-cyclosporin] (cyclo(A[dA][NMeL][NMeL][NMeV][MeBmt][Abu][dNMeA][X58]V[NMeL]))	7.46	4.72	0.5	0.5	5.46	0.3 nM	–	–	–	12 M⁻¹ s⁻¹
